{"source": "patent US9212140B2", "about": "“(5s,8s)-3-(4′-chlor-3′-fluor-4-methlybiphenyl-3-yl)-4-hydroxy-8-methoxy-1-azaspiro[4.5] dec-3-en-2-one (compound A) for treatment” (Bayer Intellectual Property GmbH, priority 2011, dated 2015)", "key": {"[1]": {"molecular_target": "T1, ACC2 (Homo sapiens (Human), UniProt O00763)", "experiment": "Human ACC2 enzyme assay A2 (HTRF ADP immunoassay)", "format": "biochemical", "conditions": "read-out: ACC 2 (=A2) IC50", "text": "The ACC2 inhibition data were obtained using two different assays (A2 and B2)"}, "[2]": {"molecular_target": "T1, ACC2", "experiment": "Human ACC2 enzyme assay B2 (ADP-Glo)", "format": "biochemical", "conditions": "read-out: ACC 2 (=B2) IC50", "protocol": "Essentially, the enzyme activity is measured by quantifying the adenosine diphosphate (ADP) formed as a byproduct of the enzyme reactions using the ADP-Glo™ detection system from Promega. In this test, initially the adenosine triphosphate (ATP) not consumed in the enzyme reaction is converted quantitatively with an adenylate cyclase (“ADP-GLO reagent”) into cAMP, the adenylate cyclase is then stopped and (“kinase detection reagent”) the ADP formed is subsequently converted into ATP, which is converted in a luciferase-based reaction into a glow luminescence signal.\nTypical concentrations were in the range of 2 ng/μl. […] The amount of light emitted was taken as a measure for the amount of ADP formed and thus for the enzyme activity of the hACC2."}, "[3]": {"system": "human MCF-7 cells", "experiment": "MCF-7 breast cancer xenograft model", "format": "in vivo, female nude mice (NMRI nu/nu)", "conditions": "for T/C (based on tumour area) / T/C (based on tumour weight): 30 days, once per day", "method": "Xenograft models in immunosuppressed mice were used to determine the antitumour activity in living organisms.\nVarious xenograft models in which the test substances were administered in their MTD and in lower doses were then used to determine the antitumour activity. In addition to various other models, use was made primarily of the breast cancer model with hormone-dependent human MCF-7 cells in female nude mice (NMRI-nude (nu/nu) mice, Taconic M&B A/S). To this end, on the day prior to the implantation of the tumour cells, a pellet for releasing oestrogen (17β-oestradiol 0.36 mg, release over 60 days) was administered subcutaneously to the mice. The next day, 2 million tumour cells (suspended in medium+Matrigel) 1:1, final 0.1 ml) were then injected subcutaneously into the side of each animal. When the tumours extended to an area of 20-25 mm^2, the mice were randomized into therapy groups and therapy was initiated. The therapy was then continued until an average tumour size of 120 mm^2 had been reached in the control group, which had only been given the vehicle of the test substance, or in one of the treatment groups, with tumour area and body weight being measured 2-3 times per week. At this point in time, the experiment was terminated in all groups and the excised tumours were weighed.\nThe T/C value was calculated as primary success parameter either using the effect on the tumour weight or using the effect on the tumour area: mean tumour weight/area in the treatment group divided by mean of the tumour weight/area in the vehicle group.\nComparative Example C.1 was subsequently administered to female nude mice (NMRI nu/nu) in the MCF-7 breast cancer xenograft model: • Dose: 7.5 mg/kg • Mode of administration: oral • Vehicle: PEG400/ethanol/Solutol HS 15(70/5/25, v/v/v) • Administration volume: 10 ml/kg • Scheme: 27 days, 2 times per day (2 qd) • Mice: 10\nCompound A was subsequently administered to female nude mice (NMRI nu/nu) in the MCF-7 breast cancer xenograft model: • Dose: see Tab. 5 • Mode of administration: oral • Vehicle: PEG400/ethanol/Solutol HS 15(70/5/25, v/v/v) • Administration volume: 10 ml/kg • Scheme: 30 days, once per day (qd) • Mice per dose group: 10-13\nFor the statistical evaluation of the experiment, the non-parametric ANOVA test was used for the T/C values based on the tumour area, since there was no normal distribution of the measured values. All therapy groups were then compared to the vehicle group using Dunns Post test. The resulting p values are shown in the table (ns: not significant=p>0.05). Since there was a normal distribution of the T/C values based on tumour weight, the ANOVA test for parametric values was used for analysis. All therapy groups were then compared to the vehicle group using the Bonferroni Post test."}, "[4]": {"experiment": "Maximum tolerated dose (MTD) determination, oral", "format": "in vivo, female nude mice (NMRI nu/nu)", "conditions": "for MTD at 21 days: 21-day treatment with 1 administration per day", "method": "To this end, initially the maximum tolerable dose (MTD) was determined using the following protocol:\nOver a period of 1, 2 or 3 weeks, a defined dose of the test substance was administered orally to female nude mice (NMRI-nude (nu/nu) mice, Taconic M&B A/S), and the mice were observed daily for mortality and body weight. The MTD was defined as the highest dose which could be administered without any animal dying during the treatment phase and the 7-day additional observation phase, and without any body weight loss of more than 10% compared to the initial weight.\nComparative Example C.1 was administered to female nude mice (NMRI nu/nu): • Dose: see Tab. 3 • Mode of administration: oral • Vehicle: PEG400/ethanol/Solutol HS 15(70/5/25, v/v/v) • (Solutol HS15: polyoxyethylene ester of 12-hydroxystearic acid) • Administration volume: 10 ml/kg • Scheme: see Tab. 3\nThe treatment phase was followed by an observation phase of 7 days.\nCompound A was administered to female nude mice (NMRI nu/nu): • Dose: see Tab. 4 • Mode of administration: oral • Vehicle: PEG400/ethanol/Solutol HS 15(70/5/25, v/v/v) • Administration volume: 10 ml/kg • Scheme: see Tab. 4"}, "[5]": {"system": "LNCaP", "experiment": "Cell assay, tumour cell proliferation (CellTiter-Glo, 96 h)", "format": "cell-based", "conditions": "Homo sapiens, 96-hour incubation", "method": "(§1) In accordance with the invention, the substances were tested in cell-based assays for the ability of the substances of inhibiting tumour cell proliferation after a 96-hour incubation with the substance. Cell viability was tested using the CellTiter-Glo® luminescent cell viability assay (Promega). The cells were sown at a density of 2000-5000 cells/well (depending on the cell line) in 100 μl growth medium on 96-well microtitre plates. For each cell line examined, cells were sown on a separate plate to determine the luminescence at t=0 hours and t=96 hours. After overnight incubation at 37° C., the luminescence values for the t=0 samples were determined. The dose plates for the t=96 hours points in time were treated with substances diluted with growth medium. The cells were then incubated at 37° C. for 96 hours, and the luminescence values for the t=96 hours sample were then determined/For data analysis, the t=0 values were subtracted from the t=96 hour values for treated and untreated samples. The differences in luminescence in percent between substance-treated samples and control values were used to determine the growth inhibition in percent.\n(§2) The substances were tested in the following cell lines which represent the stated indications in an exemplary manner: […]"}, "[6]": {"system": "CAL-120", "experiment": "Cell assay, tumour cell proliferation (CellTiter-Glo, 96 h)", "format": "cell-based", "conditions": "Homo sapiens, 96-hour incubation", "method": "as §1, §2"}, "[7]": {"system": "DAN-G", "experiment": "Cell assay, tumour cell proliferation (CellTiter-Glo, 96 h)", "format": "cell-based", "conditions": "96-hour incubation", "method": "as §1, §2"}, "[8]": {"system": "H460", "experiment": "Cell assay, tumour cell proliferation (CellTiter-Glo, 96 h)", "format": "cell-based", "conditions": "Homo sapiens, NCI-H460; 96-hour incubation", "method": "as §1, §2"}, "[9]": {"system": "BT-20", "experiment": "Cell assay, tumour cell proliferation (CellTiter-Glo, 96 h)", "format": "cell-based", "conditions": "Homo sapiens, 96-hour incubation", "method": "as §1, §2"}, "[10]": {"system": "SNU16", "experiment": "Cell assay, tumour cell proliferation (CellTiter-Glo, 96 h)", "format": "cell-based", "conditions": "Homo sapiens, SNU-16; 96-hour incubation", "method": "as §1, §2"}, "[11]": {"system": "BxPC3", "experiment": "Cell assay, tumour cell proliferation (CellTiter-Glo, 96 h)", "format": "cell-based", "conditions": "Homo sapiens, BXPC-3; 96-hour incubation", "method": "as §1, §2"}, "[12]": {"conditions": "7.5 mg/kg oral 2 qd, up to day 37 of the experiment"}}}
{"compound": "COC1CCC2(C=C(c3cc(-c4ccc(Cl)c(Cl)c4)ccc3C)C(=O)N2)CC1", "note": "(stereo not shown) [Comparative Example C.2]", "values": [{"measurement": "IC50", "setting": "[1]", "result": 1410, "unit": "nM"}, {"measurement": "IC50", "setting": "[2]", "result": 2610, "unit": "nM"}]}
{"compound": "CO[C@H]1CC[C@]2(CC1)NC(=O)C(c1cc(-c3ccc(Cl)cc3)ccc1C)=C2O", "note": "[Comparative Example C.1, (5s,8s)-3-(4′-chloro-4-methylbiphenyl-3-yl)-4-hydroxy-8-methoxy-1-azaspiro[4.5]dec-3-en-2-one]", "values": [{"measurement": "animals died", "setting": "[3]; [12]", "result": "1 of 10"}, {"measurement": "bodyweight loss", "setting": "[3]; [12]", "result": "low bodyweight loss"}, {"measurement": "T/C value based on tumour area", "setting": "[3]; 7.5 mg/kg oral, 27 days, 2 times per day (2 qd)", "result": 0.86}, {"measurement": "Deaths", "setting": "[3]; continued with 10 mg/kg 2 qd up to day 43", "result": "1 of 4"}, {"measurement": "Deaths", "setting": "[3]; continued with 12.5 mg/kg 2 qd up to day 43", "result": "4 of 5"}, {"measurement": "Deaths", "setting": "[4]; 10 mg/kg oral, 14 days, 2 times a day", "result": "1 of 3"}, {"measurement": "Deaths", "setting": "[4]; 15 mg/kg oral, 21 days, once per day (Table 3)", "result": "1 of 5"}, {"measurement": "Deaths", "setting": "[4]; 20 mg/kg oral, 14 days, 2 times a day", "result": "2 of 3"}, {"measurement": "Deaths", "setting": "[4]; 20 mg/kg oral, 21 days, once per day (Table 3)", "result": "1 of 5"}, {"measurement": "Deaths", "setting": "[4]; 25 mg/kg oral, 21 days, once per day (Table 3)", "result": "1 of 5"}, {"measurement": "Deaths", "setting": "[4]; 30 mg/kg oral, 14 days, 2 times a day", "result": "2 of 3"}, {"measurement": "MTD at 14 days", "setting": "[4]; female, NMRI nu/nu, mouse, in vivo, po, 14-day treatment with 2 administrations per day", "result": "< 10", "unit": "mg/kg"}, {"measurement": "MTD at 21 days", "setting": "[4]; female, NMRI nu/nu, mouse, in vivo, po", "result": "< 15", "unit": "mg/kg"}]}
{"compound": "CO[C@H]1CC[C@]2(CC1)NC(=O)C(c1cc(-c3ccc(Cl)c(F)c3)ccc1C)=C2O", "note": "[Compound A, (5s,8s)-3-(4′-chloro-3′-fluoro-4-methylbiphenyl-3-yl)-4-hydroxy-8-methoxy-1-azaspiro[4.5]dec-3-en-2-one]", "values": [{"measurement": "T/C (based on tumour area)", "setting": "[3]; 20 mg/kg oral", "result": "0.56 (ns)"}, {"measurement": "T/C (based on tumour weight)", "setting": "[3]; 20 mg/kg oral", "result": "0.42 (p = 0.003)"}, {"measurement": "T/C (based on tumour area)", "setting": "[3]; 25 mg/kg oral", "result": "0.51 (p < 0.05)"}, {"measurement": "T/C (based on tumour weight)", "setting": "[3]; 25 mg/kg oral", "result": "0.37 (p < 0.001)"}, {"measurement": "T/C (based on tumour area)", "setting": "[3]; 30 mg/kg oral", "result": "0.49 (p < 0.05)"}, {"measurement": "T/C (based on tumour weight)", "setting": "[3]; 30 mg/kg oral", "result": "0.35 (p < 0.001)"}, {"measurement": "T/C (based on tumour area)", "setting": "[3]; 35 mg/kg oral", "result": "0.44 (p < 0.05)"}, {"measurement": "T/C (based on tumour weight)", "setting": "[3]; 35 mg/kg oral", "result": "0.31 (p < 0.001)"}, {"measurement": "antitumoral efficacy (in words)", "setting": "[3]; MCF-7 xenograft, summary statement", "result": "biologically meaningful and significant antitumoral effects"}, {"measurement": "Deaths", "setting": "[4]; 20 mg/kg oral, 21 days, once per day (Table 4)", "result": "0 of 5"}, {"measurement": "Deaths", "setting": "[4]; 30 mg/kg oral, 21 days, once per day (Table 4)", "result": "0 of 5"}, {"measurement": "Deaths", "setting": "[4]; 40 mg/kg oral, 21 days, once per day (Table 4)", "result": "1 of 5"}, {"measurement": "Deaths", "setting": "[4]; 50 mg/kg oral, 21 days, once per day (Table 4)", "result": "5 of 5"}, {"measurement": "Deaths", "setting": "[4]; 60 mg/kg oral, 21 days, once per day (Table 4)", "result": "5 of 5"}, {"measurement": "MTD at 21 days", "setting": "[4]; female, NMRI nu/nu (nude), mouse, in vivo, po", "result": "< 40", "unit": "mg/kg"}, {"measurement": "IC50", "setting": "[5]", "result": 334, "unit": "nM"}, {"measurement": "IC50", "setting": "[6]", "result": 266, "unit": "nM"}, {"measurement": "IC50", "setting": "[7]", "result": 184, "unit": "nM"}, {"measurement": "IC50", "setting": "[8]", "result": 201, "unit": "nM"}, {"measurement": "IC50", "setting": "[9]", "result": 187, "unit": "nM"}, {"measurement": "IC50", "setting": "[10]", "result": 164, "unit": "nM"}, {"measurement": "IC50", "setting": "[11]", "result": 165, "unit": "nM"}]}
